Patent publication US8173665B2, “I-pheny 1-3,4-dihydropyrimidin-2(1H)-one derivatives and their use” (Bayer Pharma Aktiengesellschaft, priority 2002, dated 2012)

How the values were obtained:
[1] = system: human polymorphonuclear cells (PMNs); experiment: In vitro PMN elastolysis assay (3H-elastin); type: cell-based
Procedure: In Vitro PMN Elastolysis Assay
This assay is used to determine the elastolytic potential of human polymorphonuclear cells (PMNs) and assess the proportion of degradation due to neutrophil elastase [cf. Z. W. She et al., Am. J. Respir. Cell. Mol. Biol. 9, 386-392 (1993)].
Tritiated elastin, in suspension, is coated on to a 96 well plate at 10 μg per well. Test and reference [ZD-0892 (J. Med. Chem. 40, 1876-1885, 3173-3181 (1997), WO 95/21855) and α1 protease inhibitor (α1PI)] compounds are added to the wells at the appropriate concentrations. Human PMNs are separated from peripheral venous blood of healthy donors and resuspended in culture media. The neutrophils are added to the coated wells at concentrations ranging between 1×10^6 to 1×10^5 cells per well. Porcine pancreatic elastase (1.3 μM) is used as a positive control for the assay, and α1PI (1.2 μM) is used as the positive inhibitor of neutrophil elastase. The cellular control is PMNs without compound at each appropriate cell density. The cells plus compounds are incubated in a humidified incubator at 37° C. for 4 hours. The plates are centrifuged to allow the harvest of cell supernatant only. […] The plates are dried until no liquid is visible in the wells and read in a beta counter for 3 minutes per well. […]
The compounds of this invention are evaluated for their inhibitory activity in this HNE-dependent model of neutrophil elastolysis.

[2] = target: T1, human neutrophil elastase (HNE) (Homo sapiens, UniProt P08246); experiment: In vitro inhibition of HNE using a fluorogenic peptide substrate (MeOSuc-Ala-Ala-Pro-Val-AMC); type: biochemical; settings: 384 MTP format
T1 construct: purchased SERVA Electrophoresis GmbH, Heidelberg, Germany #20927.01
T1 sequence (P08246 30-267): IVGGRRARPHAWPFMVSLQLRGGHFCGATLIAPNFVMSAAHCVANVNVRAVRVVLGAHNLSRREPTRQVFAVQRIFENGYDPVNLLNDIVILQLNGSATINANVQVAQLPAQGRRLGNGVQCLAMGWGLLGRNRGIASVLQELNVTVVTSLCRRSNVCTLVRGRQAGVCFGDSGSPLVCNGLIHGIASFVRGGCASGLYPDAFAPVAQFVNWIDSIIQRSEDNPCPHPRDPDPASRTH
Procedure: I. In Vitro Enzyme Assays of Human Neutrophil Elastase (HNE) assay buffer: 0.1 M HEPES-NaOH buffer pH 7.4, 0.5 M NaCl, 0.1% (w/v) bovine serum albumin; suitable concentration (see below) of HNE (18 U/mg lyophil., #20927.01, SERVA Electrophoresis GmbH, Heidelberg, Germany) in assay buffer; suitable concentration (see below) of substrate in assay buffer; suitable concentration of test compounds diluted with assay buffer from a 10 mM stock solution in DMSO.
In Vitro Inhibition of HNE Using a Fluorogenic Peptide Substrate
Continuous Read-Out Signal, 384 MTP Assay Format
In this protocol, the elastase substrate MeOSuc-Ala-Ala-Pro-Val-AMC (#324740, Calbiochem-Novabiochem Corporation, Merck KGaA, Darmstadt, Germany) is used. The test solution is prepared by mixing 10 μl of test compound dilution, 20 μl of HNE enzyme dilution (final concentration 8-0.4 μU/ml, routinely 2.1 μU/ml) and 20 μl of substrate dilution (final concentration 1 mM-1 μM, routinely 20 μM), respectively. The solution is incubated for 0-2 hrs at 37° C. (routinely one hour). The fluorescence of the liberated AMC due to the enzymatic reaction is measured at 37° C. (TECAN spectra fluor plus plate reader). The rate of increase of the fluorescence (ex. 395 nm, em. 460 nm) is proportional to elastase activity. IC50 values are determined by RFU-versus-[I] plots. Km and Km(app.) values are determined by Lineweaver-Burk plots and converted to Ki values by Dixon plots.

Compound | IC50 [2] [nM] | further results
COc1ccc(C(=O)N[C@H](C(=O)N2CCC[C@H]2C(=O)N[C@H](C(=O)C(F)(F)F)C(C)C)C(C)C)cc1 [ZD-0892] | – | IC50 ([1]; n=2 different donors at 3.6×10^5 cells per well, read-out: IC50 (mean±s.e.m.)): 45.5 ± 7.75 nM
CCOC(=O)C1=C(C)N(c2cccc(Cl)c2)C(SCCCOC(N)=O)=NC1c1ccc(C#N)cc1 (stereo not shown) [Example 33] | 20 | –
α1PI: α1 protease inhibitor, used as the positive inhibitor of neutrophil elastase | – | inhibition of elastolysis (mean±s.e.m.) ([1]; at 1.2 μM, n=3 different donors at 3.6×10^5 cells per well): 83.46±3.97%
CCOC(=O)C1=C(C)N(c2cccc(C(F)(F)F)c2)C(=S)NC1c1ccc(C#N)cc1 (stereo not shown) [Example 3, Ethyl 4-(4-cyanophenyl)-6-methyl-2-thioxo-1-[3-(trifluoromethyl)phenyl]-1,2,3,4-tetrahydro-5-pyrimidinecarboxylate] | 9 | –
CCOC(=O)C1=C(C)N(c2cccc(C(F)(F)F)c2)C(SC)=NC1c1ccc(C#N)cc1C (stereo not shown) [Example 31, Ethyl 4-(4-cyano-2-methylphenyl)-6-methyl-2-(methylsulfanyl)-1-[3-(trifluoromethyl)phenyl]-1,4-dihydro-5-pyrimidinecarboxylate] | 80 | –
CC1=C(C(=O)O)C(c2ccc(C#N)cc2)NC(=S)N1c1cccc(C(F)(F)F)c1 (stereo not shown) [Example 19, 4-(4-Cyanophenyl)-6-methyl-2-thioxo-1-[3-(trifluoromethyl)phenyl]-1,2,3,4-tetrahydropyrimidine-5-carboxylic acid] | 30 | –
CCN(CC)CCOC(=O)C1=C(C)N(c2cccc(C(F)(F)F)c2)C(SC)=NC1c1ccc(C#N)cc1 (stereo not shown) [Example 58, 2-(Diethylamino)ethyl 4-(4-cyanophenyl)-6-methyl-2-(methylsulfanyl)-1-[3-(trifluoromethyl)phenyl]-1,4-dihydro-5-pyrimidinecarboxylate] | 12 | –
CC(=O)C1=C(C)N(c2cccc(C(F)(F)F)c2)C(=S)NC1c1ccc(C#N)cc1 (stereo not shown) [Example 1, 4-{5-Acetyl-6-methyl-2-thioxo-1-[3-(trifluoromethyl)phenyl]-1,2,3,4-tetrahydro-4-pyrimidinyl}benzonitrile] | 13 | –
CCOC(=O)C1=C(C)N(c2cccc(C(F)(F)F)c2)C(SCc2ncc[nH]2)=NC1c1ccc(C#N)cc1 (stereo not shown) [Example 15, Ethyl 4-(4-cyanophenyl)-2-[(1H-imidazol-2-ylmethyl)sulfanyl]-6-methyl-1-[3-(trifluoromethyl)phenyl]-1,4-dihydro-5-pyrimidinecarboxylate] | 5 | –
CCOC(=O)C1=C(C)N(c2cccc(C(F)(F)F)c2)C(SCc2ccncc2)=NC1c1ccc(C#N)cc1 (stereo not shown) [Example 12, Ethyl 4-(4-cyanophenyl)-6-methyl-2-[(4-pyridinylmethyl)sulfanyl]-1-[3-(trifluoromethyl)phenyl]-1,4-dihydro-5-pyrimidinecarboxylate] | 100 | –
CCOC(=O)C1=C(C)N(c2cccc(C(F)(F)F)c2)C(SCCN(CC)CC)=NC1c1ccc(C#N)cc1 (stereo not shown) [Example 14, Ethyl 4-(4-cyanophenyl)-2-{[2-(diethylamino)ethyl]sulfanyl}-6-methyl-1-[3-(trifluoromethyl)phenyl]-1,4-dihydro-5-pyrimidinecarboxylate] | 10 | –
CCOC(=O)C1=C(C)N(c2cccc(C(F)(F)F)c2)C(=S)N(C(=O)C2CCC2)C1c1ccc(C#N)cc1 (stereo not shown) [Example 29] | 10 | –
CCOC(=O)C1=C(C)N(c2cccc(C(F)(F)F)c2)C(SC)=NC1c1ccc(C#N)cc1 (stereo not shown) [Example 7] | 10 | –
CC1=C(C(N)=O)C(c2ccc(C#N)cc2)NC(=S)N1c1cccc(C(F)(F)F)c1 (stereo not shown) [Example 4, 4-(4-Cyanophenyl)-6-methyl-2-thioxo-1-[3-(trifluoromethyl)phenyl]-1,2,3,4-tetrahydro-5-pyrimidinecarboxamide] | 23 | –
CC1=C(C(=O)N(C)C)C(c2ccc(C#N)cc2)NC(=S)N1c1cccc(C(F)(F)F)c1 (stereo not shown) [Example 6, 4-(4-Cyanophenyl)-N,N,6-trimethyl-2-thioxo-1-[3-(trifluoromethyl)phenyl]-1,2,3,4-tetrahydro-5-pyrimidinecarboxamide] | 70 | –
CCOC(=O)C1=C(C)N(c2cccc(C(F)(F)F)c2)C(SCC)=NC1c1ccc(C#N)cc1 (stereo not shown) [Example 9] | 40 | –
